Results as given in patent publication US5527940A, “Methanediphosphonate derivative, its manufacturing process and its pharmaceutical applications” (Toray Industries, Inc., priority 1991, dated 1996).

Tests used:
[1] = test system: adjuvant arthritis model; experiment: Adjuvant Arthritis Test; assay type: in vivo, 7 week old female Lewis rats; set-up: concentration or dose not given beside the values; conditions: subcutaneous daily days 8-21; for Bone Destruction Inhibition Rate with respect to control group, Day 22: Day 22, soft X-ray score of left and right hind limbs; for Swelling Inhibition Rate with respect to Control Group, Day 21, Left / Swelling Inhibition Rate with respect to Control Group, Left (day 14 per footnote) / Swelling Inhibition Rate with respect to Control Group, Day 16, Left: left (adjuvant-injected) hind limb; for Swelling Inhibition Rate with respect to Control Group, Left (day 14 per footnote) / Swelling Inhibition Rate with respect to Control Group, Right (day 14 per footnote): day 14 (column head Day 16); for Swelling Inhibition Rate with respect to Control Group, Day 21, Right / Swelling Inhibition Rate with respect to Control Group, Right (day 14 per footnote) / Swelling Inhibition Rate with respect to Control Group, Day 16, Right: right hind limb
Experimental: Multiple arthritis resembling human chronic articular rheumatism occurs when tubercule bacillus adjuvant is injected into rats. The antiinflammatory, antirheumatic and bone metabolism improving action of compounds of the present invention were investigated according to the following procedure using this adjuvant arthritis model.
0.1 mg of dried non-viable Mycobacterium butyricum cells were suspended in 0.1 ml of liquid paraffin followed by injection into the skin of the left hind limb of 7 week old female Lewis rats. The compounds obtained in the Examples were dissolved in sterilized distilled water and administered subcutaneously every day for two weeks from the 8th to 21st days after injection of adjuvant. During that time, the volumes of the right and left hind limbs were measured and the swelling rate was calculated according to the following formula: [formula]
Moreover, the swelling inhibition rates were also determined according to the following formula, and those values are shown in Table 1. [formula]
Soft X-ray radiographs were taken of the left and right hind limbs of the animals following sacrifice on day 22. The degree of bone destruction at five locations in the left and right hind limbs was evaluated based on the soft X-ray radiographs scoring those results among 5 ranks. Moreover, the bone destruction inhibition rate was calculated using the following formula, and those values are shown in Table 1. [formula]
Those results that were significant at a level of significance of P<0.001 with respect to a control group administered only sterilized distilled water according to the Student's t-test and Chukey's multiple comparison method were indicated with three asterisks (***), those results that were significant at a level of significance of P<0.01 were indicated with two asterisks (**), and those significant at a level of significance of P<0.05 were indicated with one asterisk (*).
The swelling inhibition rates for Example 7 and Example 33 are the values for day 14 and day 21.

[2] = test system: active oxygen production by human neutrophils; experiment: Release of active oxygen from fMLP-stimulated human neutrophils (CLA luminescence); assay type: cell-based; conditions: Neutrophil, 10 μM compound, fMLP stimulation, read-out: Active Oxygen Production Inhibition Rate
Source text: Neutrophils are known to function in the body defense reactions by phagocytosis of foreign bodies to remove them and production of active oxygen and digestive enzymes. However, the active oxygen and digestive enzymes produced by neutrophils also damage normal tissue during chronic inflammations and so forth. Moreover, they are also considered to exacerbate the inflammation. The action of compounds of the present invention was therefore measured with respect to the release of active oxygen from human neutrophils.
50 ml of human blood were drawn from a vein using 3.8% sodium citrate as anticoagulant. Equal volumes of this blood and a physiological saline solution containing 2% dextran were mixed and allowed to stand undisturbed for 30 minutes at 37° C. after shaking several times. The upper layer was separated and layered onto an equal volume of Ficoll-Paque solution. After centrifuging for 30 minutes at 1400 rpm and 20° C., the supernatant was removed and the cells were resuspended with Hanks buffer. […] The maximum amount of light emitted was then determined by a luminometer taking advantage of the phenomenon in which this excited carbonyl form emits light at 380 nm in the process of transition to the ground state. The active oxygen production inhibition rate was then calculated using the formula indicated below. […]

[3] = test system: osteoclasts (mouse bone cells), resorption pit formation; experiment: Bone resorption pit formation by mouse bone cells (osteoclasts) on ivory, active type-vitamin D3 stimulation; assay type: cell-based, ICR mice; conditions: 10 nM active type-vitamin D3, 4 days
Source text: The balance between bone formation and bone destruction is disturbed during osteoporosis, with bone destruction considered to be accelerated. Bone destruction is believed to occur due to an increase in the activation and number of osteoclasts. Experiments have been conducted wherein bone resorption was induced with active type-vitanium D3 stimulation using mouse bone cells dispersed on ivory for the experimental model. The bone resorption inhibitory action of compounds of the present invention was measured using this model.
After isolating the femur and tibia from 10-15 day old ICR mice, the bone specimens were prepared into thin sections in α-MEM medium containing 5% fetal bovine serum to prepare an bone cells suspension containing marrow cells and bone matrix. Large fragments of bone were removed with nylon mesh. Viable total cells were counted with trypan blue exclusion test while osteoclasts were stained with tartaric acid-resistantacid phosphatase stain to prepare a cell suspension containing osteoclasts in a proportion of roughly 0.05-0.1%. The ivory was cut into thin sections having a thickness of 150 μm using a low-speed rotary diamond cutter. The thin sections were then punched to a size that matched the size of the wells of a 96 well plate. These ivory fragments were placed in a 96 well plate followed by addition of the cell suspension prepared above so that each well contained 500 osteoclasts. 10 nM active type-vitamin D3 was added as stimulant simultaneous to addition of the drugs of the present invention at concentrations of 10 μM and 100 μM. After culturing the cells for 4 days at 37° C. in an environment of 10% CO2, the resorption pits that formed on the ivory slices were stained with hematoxylin and counted by observing microscopically. The resorption pit formation inhibition rate was then calculated using the formula indicated below. [formula]
The results were statistically processed using the Student's t-test, and those results that were significant at a level of significance of P<0.05 with respect to an active type-vatanium D3 stimulation control group were indicated with one asterisk (*), while those results that were significant at a level of significance of P<0.01 were indicated with two asterisks (**).

[4] = test system: IL-1 production by J774-1 mouse macrophage cells; experiment: Action on IL-1 Production by Strain J774-1 Mouse Macrophage Cells (LPS stimulated); assay type: cell-based; conditions: 100 μM compound, LPS 1 μg/ml, 24 hours, read-out: IL-1 Production Inhibition Rate with respect to Control Group
Experimental: It is also known that these cells produce IL-1 when stimulated with LPS. The inhibitory action on IL-1 production of compounds of the present invention was measured according to the following procedure using this cell line.
The J774-1 cells were cultured in RPMI-1640 medium containing 10% fetal bovine serum and 50 μM 2-mercaptoethanol followed by adjusting the number of cells to 2×10^5 cells/ml. 1 ml aliquots of this cell suspension were then placed in the wells of a 24 well plate and cultured for 30 minutes. Following culturing, LPS was added to a final concentration of 1 μg/ml. At the same time, compounds obtained in Examples were dissolved in sterilized distilled water and added at a concentration of 100 μM. […]
The samples obtained above were serially diluted by a factor of 2 in a 96 well multiplate at a capacity of 50 μl. […] The thymus cells were then cultured for 72 hours and IL-1 activity was determined from the growth rate of the cells. […] Using the absorbance of the pigment produced by this reduction at 570 nm as the index, the dilution factor of the sample when growth of thymus cells is induced by 50% was calculated in terms of the number of units of that sample by taking the case of induction of maximum growth of T cells by human gene recombinant IL-1 to be 100% growth, and growth in the case of not adding IL-1 to be 0%. […]

SMILES | Bone Destruction Inhibition Rate with respect to control group, Day 22 [1] | Swelling Inhibition Rate with respect to Control Group, Day 21, Left [1] | Swelling Inhibition Rate with respect to Control Group, Left (day 14 per footnote) [1] | Swelling Inhibition Rate with respect to Control Group, Day 21, Right [1] | Swelling Inhibition Rate with respect to Control Group, Right (day 14 per footnote) [1] | inhibition at 10 µM [2] | resorption pit formation Inhibition Rate with respect to Control Group ([3]; 10 μM compound) | resorption pit formation Inhibition Rate with respect to Control Group ([3]; 100 μM compound) | Swelling Inhibition Rate with respect to Control Group, Day 16, Left [1] | Swelling Inhibition Rate with respect to Control Group, Day 16, Right [1] | inhibition at 100 µM [4]
CSc1ccc(SCCCC(O)(P(=O)(O)O)P(=O)(O)O)cc1 [Example 33, disodium 4-(4-methylthiophenyl)thio-1-hydroxy-butylidene-1,1-diphosphonate] | 77.1% | 138.0% | 115.0% | 66.1% | 63.5% | – | – | – | – | – | –
CSc1ccccc1SC(P(=O)(O)O)P(=O)(O)O [Example 9, (2-methylthiophenyl)thiomethanediphosphonic Acid] | – | – | – | – | – | 46.3 ± 0.81% | 35.8 ± 27.0% | 77.8 ± 3.59% | – | – | –
CSc1cccc(SC(P(=O)(O)O)P(=O)(O)O)c1 [Example 7, (3-methylthiophenyl)thiomethanediphosphonic Acid] | 43.7% | 72.7% | 48.6% | 24.2% | 15.0% | – | – | – | – | – | –
CSc1ccc(C=C(P(=O)(O)O)P(=O)(O)O)cc1 [Example 28, 2-(4-methylthiophenyl)ethynilidene-1,1-diphosphonic acid] | – | – | – | – | – | – | -0.34 ± 10.1% | 67.8 ± 3.98% | – | – | –
CSc1ccc(CC(P(=O)(O)O)P(=O)(O)O)cc1 [Example 30, 2-(4-methylthiophenyl)ethane-1,1-diphosphonic acid] | – | – | – | – | – | – | 35.6 ± 11.3% | 87.0 ± 4.34% | – | – | –
O=P(O)(O)C(Sc1ccc(Sc2ccccc2)cc1)P(=O)(O)O [Example 15, (4-phenylthiophenyl)thiomethanediphosphonic Acid] | 33.7% | 73.8% | – | 33.7% | – | – | 30.5 ± 22.9% | 74.1 ± 4.38% | 75.0% | 28.1% | –
CC(C)Sc1ccc(SC(P(=O)(O)O)P(=O)(O)O)cc1 [Example 13, (4-isopropylthiophenyl)thiomethanediphosphonic Acid] | 62.5% | 91.8% | – | 28.7% | – | – | 54.6 ± 10.4% | 92.5 ± 0.61% | 76.9% | 16.8% | 38.6%
